# Measured values published in the SangsterLogP compilation.
# Assay: method code SF-AS, from PMID: 7324974
# Conditions: pH 5.0
row,SMILES,logD
1,CC1CCCc2ncc(C(N)=O)c(=O)n21 (centres undefined),0.04
2,CCOC(=O)c1cnc2n(c1=O)CCCC2,0.15
3,CCN1C=C(C(N)=O)C(=O)N2C(C)CCCC12 (centres undefined),0.6
4,CCOC(=O)c1cnc2n(c1=O)CCC(C)C2 (centres undefined),0.66
5,CC1CCCC2NC=C(C(N)=O)C(=O)N12 (centres undefined),0.51
6,CCOC(=O)C1=CNC2CCCCN2C1=O (centres undefined),0.57
7,COC(=O)c1cnc2n(c1=O)CCCC2,-0.25
8,CCOC(=O)c1cnc2n(c1=O)C(C)CCC2 (centres undefined),0.62
9,CCOC(=O)c1cnc2n(c1=O)CC(C)CC2 (centres undefined),0.71
10,CCOC(=O)C1=CNC2CCCC(C)N2C1=O (centres undefined),0.79
11,COC(=O)c1cnc2n(c1=O)C(C)CCC2 (centres undefined),0.16
12,CC1CCC=C2N(C)C=C(C(N)=O)C(=O)N21 (centres undefined),0.12
13,COC(=O)c1cnc2n(c1=O)C(C(C)C)CCC2 (centres undefined),0.99
14,CC1CCCC2N(C)C=C(C(N)=O)C(=O)N12 (centres undefined),0.22
15,CCOC(=O)C1=CN(C)C2CCCC(C)N2C1=O (centres undefined),0.45

# Second part, the molecule after the results:
row,logD,SMILES
1,2.59,Cc1cccc2ncc(-c3ccccc3)c(=O)n12
2,0.9,CCOC(=O)c1cnc2ccc(C)cn2c1=O
3,1.14,CCCC1CCCc2ncc(C(=O)OC)c(=O)n21 (centres undefined)
4,1.77,CCCCC1CCCc2ncc(C(=O)OC)c(=O)n21 (centres undefined)
5,0.96,CCOC(=O)c1cnc2cccc(C)n2c1=O
6,0.77,Cc1cnc2ccccn2c1=O
7,0.87,CCOC(=O)c1cnc2cc(C)ccn2c1=O
8,2.37,CCCc1nc2cccc(C)n2c(=O)c1CC
9,1.05,Cc1cc(=O)n2c(C)cccc2n1
10,1.63,CCc1cccc2nc(C)cc(=O)n12
11,0.25,CCOC(=O)c1cnc2ccccn2c1=O
12,1.87,CCc1nc2cccc(C)n2c(=O)c1C
13,1.16,CCOC(=O)c1cnc2c(C)cccn2c1=O
14,1.59,CCc1cc(=O)n2c(C)cccc2n1
